Test results from US9757350B2, “Small molecule inhibitors of replication protein A that also act synergistically with cisplatin” (Indiana University Research and Technology Corp., priority 2010, dated 2017).
Entries after “also recorded” stand apart in the source; their conditions may differ. Where two headings read alike, the source gives them in different places.

Columns and labels:
EcSSB = molecular target: T1, EcSSB (Escherichia coli, UniProt P0AGE0); experiment: E. coli SSB DNA-binding EMSA; conditions: 0-200 μM, pre-incubated with protein
T1 construct: purchased Enzymatics, Beverly, Mass
Experimental: In order to study the specificity of the CheSS19, and MCI13E/F compounds, their effects on two ssDNA binding proteins which use OB-folds for recognition and binding of ssDNA, E. coli SSB (6) and the Schizosaccharomyces pombe Pot1(DBD) domain (11) were studied. The EcSSB protein is a non-sequence-specific ssDNA binding protein, whereas the SpPot1(DBD) protein is a telomere-specific, ssDNA binding protein. In these experiments, protein was pre-incubated with the SMIs, as was done for the RPA experiments, prior to addition of radiolabeled ssDNA to the reactions.
Referring now to FIG. 6B. CheSS19 titration in EcSSB DNA-binding reactions. CheSS19 (0, 25, 50, 100, and 200 μM) was pre-incubated with EcSSB and binding reactions were carried out. Referring now to FIG. 6C. Titration of MCI13E and MCI13F in EcSSB DNA-binding reactions. Concentrations of MCI13E/F used were: 0, 25, 50, 100, and 200 μM. In all panels, the ‘Free’ ssDNA is indicated with an arrow and the ‘Bound’ ssDNA is indicated by brackets. All reactions were performed in the same order and manner as the RPA binding reactions. EcSSB binding was unaffected by CheSS19 and the MCI13E and MCI13F compounds […].
EMSAs were performed similarly to those for the RPA constructs, with the following exceptions. Reactions contained 25 nM of 5′-[^32P]-labeled 3Pc3 ssDNA and 3.3 nM (assuming homotetramer formation) SSB protein (Enzymatics, Beverly, Mass.). Reactions (20 μL) were carried out in 20 mM HEPES, pH 7.5, 1 mM DTT, 0.01% NP-40, 100 mM NaCl, and resolved by 6% native polyacrylamide gel electrophoresis at 25 mA for 2 hours. Gels were dried and quantified via phosphorimager analysis and ImageQuant software (Molecular Dynamics).

A549 cell lines = experiment: Combination with ionizing radiation, A549; format: cell-based; conditions: A549, data not shown
RPA DBD-A/B = molecular target: T2, RPA DBD-A/B (Homo sapiens, UniProt P27694); experiment: EMSA DNA binding assay, RPA DBD-A/B construct
T2 construct: made in house; host or cells: E. coli BL21(DE3)
Experimental: DBD-A/B. The sequence encoding the RPA p70 DNA binding domains A and B were subcloned from the hrRPA plasmid (provided by Dr. Marc Wold, University of Iowa) into the pET15b (Novagen) vector and the protein was expressed in BL21(DE3) cells (Stratagene) as previously described. Briefly, cells were grown to an OD600 of 0.8, induced with 0.5 mM isopropyl-1-thio-β-D-galactopyranoside (IPTG) at 37° C. for 2-3 hours. Small scale DBD-A/B preparations were obtained from 1 L cultures and following induction, cells were harvested by centrifugation at 700×g for 30 minutes at 4° C. The pellets were suspended in Buffer A (20 mM Tris, pH 7.5, 10% glycerol, 500 mM NaCl, 10 mM β-mercaptoethanol (BME) and 1 μg/mL phenylmethanesulfonylfluoride (PMSF), leupeptin and pepstatin) at 1 mL/gram of cells. The cells were lysed by sonication and insoluble material sedimented at 15,000×g for 30 minutes at 4° C. The supernatant was then loaded onto a 10 mL phosphocellulose column, equilibrated with Buffer A, and the flow-through material collected. Imidazole was added to 5 mM to the flow through which was then loaded onto a 2 mL nickel-NTA-agarose column. The column was then washed with Buffer A containing 50 mM imidazole after which protein was eluted from the column using a gradient from 50-500 mM imidazole. Fractions were analyzed for protein content using Bradford and SDS-PAGE analysis in addition to assessment of DNA binding activity as determined by anisotropy. Fractions containing the DBD-A/B protein were pooled and dialyzed overnight in Buffer B (1 mM HEPES, pH 7.2, 10 mM dithiothreitol (DTT), 50 mM NaCl and 1 μg/mL PMSF, pepstatin and leupeptin) and aliquots stored at −80° C.
RPA and DBD-A/B Binding. EMSAs were performed as previously described (22) using a 30-base purine rich ssDNA substrate (3Pc3). […] Gels were dried and quantified via phosphorimager analysis and ImageQuant software (Molecular Dynamics).

[1] = molecular target: T3, full-length heterotrimeric RPA (Homo sapiens, UniProt P27694); experiment: EMSA in vitro DNA binding assay, full-length heterotrimeric RPA; conditions: ssDNA substrate
T3 construct: Human full-length, un-tagged heterotrimeric RPA (RPA) was purified as previously describe; made in house
Experimental: RPA. Human full-length, un-tagged heterotrimeric RPA (RPA) was purified as previously describe.
RPA and DBD-A/B Binding. EMSAs were performed as previously described (22) using a 30-base purine rich ssDNA substrate (3Pc3). Briefly, reactions contained 12.5 nM 5′-[^32P]-labeled 3Pc3 ssDNA and the indicated concentrations of RPA or DBD-A/B. Protein was pre-incubated with the indicated concentration of SMI for 30 minutes at 37° C. DNA was then added and reactions incubated for an additional 5 minutes at room temperature in a final reaction volume of 40 μL. Reactions were then resolved on a 6% native polyacrylamide gel and electrophoresed at 170 volts for 1 hour. Gels were dried and quantified via phosphorimager analysis and ImageQuant software (Molecular Dynamics).

H1299 cells = experiment: CCK-8 cell viability assay, H1299; format: cell-based
Experimental: Referring now to FIG. 13A. Cell Viability and Apoptosis of Ovarian and p53 null Lung Cancer Cell Lines. A) Ovarian cancer cell line A2780 and the p53 null lung cancer cell line, H1299, were treated with log dosing of MCI13E and viability analyzed via CCK-8 metabolic assay as described in Methods. Data is presented as cell survival which was determined as a percent of the untreated control cells and represents the average and standard deviation of triplicate experiments Referring now to FIG. 13B.
Ovarian cancer cell line, A2780, cells are difficult to use for crystal violet analysis due to their enhanced sensitivity to treatment. Therefore, the cell counting kit-8 (CCK) was used to determine the viability of A2780 cells in addition to the p53 null lung cancer cell line H1299, following a 24 hour treatment with log dosing of SMI. Cells were plated (1×10^5) in 24-well dishes and treated with inhibitor after 24 hours. After treatment media was aspirated and 1 ml of DMEM was added in addition to 100 μL of CCK-8 solution. Absorbance at 450 nm was measured over 4 hours in a SpectraMax M5 plate reader and values are presented as the percent untreated control at the two hour time point for three separate plate replicates each containing three assays per plate.

[2] = H1299, 24 hours after exposing the cells, read-out: IC50, cell viability
[3] = H1299, read-out: IC50, cell viability (text to Table 3)

T2 sequence (P27694 181-422 limits assumed): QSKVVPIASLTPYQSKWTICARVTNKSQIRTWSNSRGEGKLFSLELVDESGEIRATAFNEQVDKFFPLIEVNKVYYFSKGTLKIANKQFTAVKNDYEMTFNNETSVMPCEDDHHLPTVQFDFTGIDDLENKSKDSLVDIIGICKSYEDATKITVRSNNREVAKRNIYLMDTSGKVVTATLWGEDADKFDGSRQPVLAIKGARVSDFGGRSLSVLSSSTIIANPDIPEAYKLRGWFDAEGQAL
T1 sequence (P0AGE0 2-178): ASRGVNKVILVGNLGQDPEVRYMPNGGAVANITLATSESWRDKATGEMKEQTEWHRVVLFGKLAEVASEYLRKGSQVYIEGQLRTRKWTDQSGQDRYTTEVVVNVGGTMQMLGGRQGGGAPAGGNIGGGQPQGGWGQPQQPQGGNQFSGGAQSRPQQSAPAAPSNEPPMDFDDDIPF
T3 sequence (P27694 whole entry): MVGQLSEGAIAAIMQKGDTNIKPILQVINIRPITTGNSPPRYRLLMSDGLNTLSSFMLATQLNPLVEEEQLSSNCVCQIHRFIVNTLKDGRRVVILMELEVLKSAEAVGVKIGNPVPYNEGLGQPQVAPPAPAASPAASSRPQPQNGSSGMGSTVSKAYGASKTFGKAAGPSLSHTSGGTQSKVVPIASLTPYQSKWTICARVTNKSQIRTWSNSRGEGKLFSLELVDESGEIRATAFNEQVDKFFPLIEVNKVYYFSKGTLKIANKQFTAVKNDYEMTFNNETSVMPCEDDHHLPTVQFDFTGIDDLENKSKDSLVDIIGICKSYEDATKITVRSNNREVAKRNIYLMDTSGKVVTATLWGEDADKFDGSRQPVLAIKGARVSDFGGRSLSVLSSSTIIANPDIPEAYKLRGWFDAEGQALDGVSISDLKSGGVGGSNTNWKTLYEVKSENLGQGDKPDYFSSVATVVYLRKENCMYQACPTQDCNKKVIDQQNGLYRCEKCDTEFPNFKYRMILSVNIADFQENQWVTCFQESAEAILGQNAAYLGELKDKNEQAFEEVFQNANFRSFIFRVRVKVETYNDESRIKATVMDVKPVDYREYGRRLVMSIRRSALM
T3 sequence (P15927 whole entry partner): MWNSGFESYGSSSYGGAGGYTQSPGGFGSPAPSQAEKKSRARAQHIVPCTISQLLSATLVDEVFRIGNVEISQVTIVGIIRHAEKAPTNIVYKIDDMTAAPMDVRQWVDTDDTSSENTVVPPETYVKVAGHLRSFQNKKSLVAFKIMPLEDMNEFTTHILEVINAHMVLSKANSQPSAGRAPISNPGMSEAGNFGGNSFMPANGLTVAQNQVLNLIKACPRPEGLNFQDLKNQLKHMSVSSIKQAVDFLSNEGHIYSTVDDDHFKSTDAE
T3 sequence (P35244 whole entry partner): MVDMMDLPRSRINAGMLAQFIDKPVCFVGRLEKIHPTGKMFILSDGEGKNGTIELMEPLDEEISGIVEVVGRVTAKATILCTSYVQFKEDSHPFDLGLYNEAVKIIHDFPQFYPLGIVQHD

SMILES | Effect on EcSSB ssDNA binding (EcSSB) | Cell death in combination with ionizing radiation (A549 cell lines) | Inhibition of DBD-A/B DNA binding (RPA DBD-A/B) | Inhibition of full-length RPA DNA binding [1] | IC50 (H1299 cells; H1299 (p53 null), 24 hours of treatment, CCK-8, read-out: IC50, cell viability) [nM] | IC50 (H1299 cells; [2]) [nM] | IC50 (H1299 cells; [3]) [nM]
CC1(C)C2CCC1(C)C(OC(=O)CBr)C2 (racemic) [MCI13E, (+/−)-Isobornyl bromoacetate] | unaffected; also recorded: no significant inhibition | at best, an additive increase in cell death | no inhibitory activity; also recorded: completely ineffective | inhibits RPA-DNA binding in vitro; also recorded: inhibition of the full-length heterotrimer RPA | ~4000 | 500 | ~500
CC1(C)C2CCC1(C)C(OC(=O)CI)C2 (racemic) [MCI13F, (+/−)-Isobornyl iodoacetate] | unaffected; also recorded: no significant inhibition | at best, an additive increase in cell death | no inhibitory activity; also recorded: completely ineffective | slightly more effective |  | 500 | ~500
